Assay results from the CheMixHub viscosity set.
“And” between values parts separate entries of the source, which are not always exact repeats. Identical values can stand only once.

Assay: xn = mol fraction of the nth substance listed

CC(=O)CC(C)(C)O + CC(C)O
viscosity [mPa·s], 100 kPa
Conditions	x2 = 0.1	x2 = 0.2	x2 = 0.3	x2 = 0.4	x2 = 0.5	x2 = 0.6	x2 = 0.7	x2 = 0.8	x2 = 0.9
303.15 K	2.39	2.29	2.19	2.09	2	1.91	1.84	1.78	1.75
323.15 K	1.5	1.43	1.36	1.29	1.23	1.18	1.12	1.08	1.04

CCN(CC)S(C)(=O)=O + CC(C)O
303.15 K, 101.33 kPa
Conditions	viscosity [mPa·s]
x1 = 0.068	15930
x1 = 0.1441	15440
x1 = 0.2157	15650
x1 = 0.2582	15980
x1 = 0.3391	16860
x1 = 0.4088	17920
x1 = 0.4524	18630
x1 = 0.5136	19840
x1 = 0.5952	21830
x1 = 0.6857	24330
x1 = 0.7556	26840
x1 = 0.8417	30570
x1 = 0.9259	35180

CC1(C)OCC(CO)O1 (configuration not stated) + CC(O)CO
viscosity [mPa·s], 101 kPa
Conditions	x1 = 0.1024	x1 = 0.2011	x1 = 0.2987	x1 = 0.4005	x1 = 0.5	x1 = 0.6041	x1 = 0.6998	x1 = 0.8002	x1 = 0.9017
298.15 K	40.23	35.6	31.55	27.24	22.86	19.38	16.97	14.5	12.03
308.15 K	23.19	20.46	18.03	15.53	13.03	11.25	10.26	9.248	7.738
318.15 K	14.4	12.56	11.33	9.726	8.135	7.174	6.614	6.244	5.465

CCOC(=O)C(C)O (configuration not stated) + CCC(C)=O
101 kPa
Conditions	viscosity [mPa·s]
298.15 K, x1 = 0.6999	1.375
308.15 K, x1 = 0.8	1.345
308.15 K, x1 = 0.9001	1.595
318.15 K, x1 = 0.1999	0.4415

CC/C=C\CCO + CCCCCC
viscosity [mPa·s], 100 kPa
Conditions	293.15 K	298.15 K	303.15 K	308.15 K	313.15 K	318.15 K
x1 = 0.025	0.3277	0.3128	0.3002	0.2869	0.2756	0.2648
x1 = 0.0501	0.3397	0.3264	0.3121	0.2966	0.2844	0.2727
x1 = 0.1	0.3655	0.3504	0.3343	0.3164	0.3024	0.2892
x1 = 0.2001	0.4403	0.4139	0.392	0.369	0.3498	0.3318
x1 = 0.2999	0.5582	0.5227	0.4881	0.4558	0.4197	0.3967
x1 = 0.4003	0.6649	0.6196	0.5788	0.5377	0.497	0.467
x1 = 0.4994	0.8527	0.7851	0.7244	0.6686	0.6173	0.5715
x1 = 0.5998	1.103	1.005	0.9179	0.8404	0.7733	0.7131
x1 = 0.6998	1.451	1.306	1.18	1.07	0.978	0.889
x1 = 0.7995	1.878	1.701	1.522	1.366	1.238	1.126
x1 = 0.8996	2.51	2.234	1.981	1.763	1.58	1.429

CCCCC + CCCCCC
298.15 K, 101.33 kPa
Conditions	viscosity [mPa·s]
x1 = 0.1045	0.2898
x1 = 0.2098	0.2802
x1 = 0.3107	0.2724
x1 = 0.4113	0.2641
x1 = 0.5105	0.2574
x1 = 0.6025	0.2497
x1 = 0.7041	0.2432
x1 = 0.7966	0.2364
x1 = 0.8997	0.228

CCCCCCCO + CCCCCC
viscosity [mPa·s], 101.33 kPa
Conditions	303.15 K	313.15 K
x1 = 0.0308	0.2866	0.2693
x1 = 0.0919	0.3254	0.294
x1 = 0.1567	0.3966	0.3446
x1 = 0.2496	0.5095	0.4493
x1 = 0.4018	0.7642	0.6611
x1 = 0.4831	0.9566	0.7663
x1 = 0.578	1.248	0.9882
x1 = 0.6838	1.776	1.348
x1 = 0.7882	2.479	1.832
x1 = 0.8946	3.522	2.473
x1 = 0.9642	4.384	3.175

C1CCCCCCC1 + CCCCCCC
Conditions	viscosity [mPa·s]
308.15 K, 101 kPa, x2 = 0.1897	1.125

CCCCC + CCCCCCC
298.15 K, 101.33 kPa
Conditions	viscosity [mPa·s]
x1 = 0.1046	0.3691
x1 = 0.2024	0.3579
x1 = 0.3087	0.3325
x1 = 0.4077	0.3173
x1 = 0.4979	0.3004
x1 = 0.5999	0.2848
x1 = 0.6624	0.2762
x1 = 0.7972	0.254
x1 = 0.8929	0.242

CCCCCCCCCC + CCCCCCC
Conditions	viscosity
293.15 K, 100 kPa, x1 = 0.3	0.506 mPa·s
293.15 K, 101.33 kPa, x2 = 0.321	0.725 mPa·s
293.15 K, 101.33 kPa, x2 = 0.587	0.584 mPa·s
293.15 K, 101.33 kPa, x2 = 0.81	0.489 mPa·s
294.62 K, 101.3 kPa, x2 = 0.49	0.64 mPa·s
298.15 K, 101.33 kPa, x2 = 0.0985	0.8051 mPa·s
298.15 K, 101.33 kPa, x2 = 0.2017	0.745 mPa·s
298.15 K, 101.33 kPa, x2 = 0.3053	0.6806 mPa·s
298.15 K, 101.33 kPa, x2 = 0.4073	0.6363 mPa·s
298.15 K, 101.33 kPa, x2 = 0.5076	0.5891 mPa·s
298.15 K, 101.33 kPa, x2 = 0.6069	0.5466 mPa·s
298.15 K, 101.33 kPa, x2 = 0.7083	0.4983 mPa·s
298.15 K, 101.33 kPa, x2 = 0.8023	0.4575 mPa·s
298.15 K, 101.33 kPa, x2 = 0.903	0.4242 mPa·s
303.11 K, 100 kPa, x2 = 0.77	0.4628 mPa·s and 0.4626 mPa·s
303.15 K, 101.3 kPa, x2 = 0.77	0.4628 mPa·s
303.17 K, 100 kPa, x2 = 0.49	0.5761 mPa·s and 0.5762 mPa·s
303.17 K, 101.3 kPa, x2 = 0.49	0.5761 mPa·s
313.11 K, 101.3 kPa, x2 = 0.49	0.5111 mPa·s
313.15 K, 100 kPa, x1 = 0.3	0.393 mPa·s
313.18 K, 101.3 kPa, x2 = 0.77	0.4127 mPa·s
323.15 K, 100 kPa, x2 = 0.49	0.4588 mPa·s
323.15 K, 101.3 kPa, x2 = 0.49	0.4588 mPa·s

CCCCCCCO + CCCCCCC
viscosity [mPa·s], 101.33 kPa
Conditions	298.15 K	303.15 K	308.15 K	313.15 K
x1 = 0.0373	–	0.402	–	0.3519
x1 = 0.0508	0.4239	–	0.3784	–
x1 = 0.1004	0.4638	–	0.4111	–
x1 = 0.104	–	0.469	–	0.4152
x1 = 0.1707	–	0.543	–	0.4918
x1 = 0.2012	0.5765	–	0.5039	–
x1 = 0.2845	–	0.703	–	0.6087
x1 = 0.3013	0.7282	–	0.6241	–
x1 = 0.4001	0.946	–	0.7914	–
x1 = 0.4114	–	0.901	–	0.7971
x1 = 0.4992	1.243	–	1.023	–
x1 = 0.5113	–	1.21	–	0.9558
x1 = 0.5981	1.702	–	1.346	–
x1 = 0.62	–	1.671	–	1.318
x1 = 0.699	2.261	–	1.821	–
x1 = 0.7301	–	2.236	–	1.681
x1 = 0.8089	–	2.801	–	2.082
x1 = 0.85	3.616	–	2.806	–
x1 = 0.9029	–	3.742	–	2.728
x1 = 0.9456	4.749	–	3.608	–
x1 = 0.9699	–	4.553	–	3.322

CCCCC + CCCCCCCC
Conditions	viscosity [mPa·s]
297.95 K, 101 kPa, x1 = 0.1048	0.4645
297.95 K, 101 kPa, x1 = 0.1992	0.4431
297.95 K, 101 kPa, x1 = 0.3044	0.4126
297.95 K, 101 kPa, x1 = 0.4015	0.3847
297.95 K, 101 kPa, x1 = 0.5066	0.3498
297.95 K, 101 kPa, x1 = 0.5998	0.3216
297.95 K, 101 kPa, x1 = 0.7095	0.2978
297.95 K, 101 kPa, x1 = 0.8097	0.2723
297.95 K, 101 kPa, x1 = 0.8946	0.2443
298.15 K, 101.33 kPa, x1 = 0.1059	0.4719
298.15 K, 101.33 kPa, x1 = 0.1973	0.4439
298.15 K, 101.33 kPa, x1 = 0.3019	0.4091
298.15 K, 101.33 kPa, x1 = 0.404	0.3806
298.15 K, 101.33 kPa, x1 = 0.5019	0.3545
298.15 K, 101.33 kPa, x1 = 0.6046	0.3228
298.15 K, 101.33 kPa, x1 = 0.7015	0.2963
298.15 K, 101.33 kPa, x1 = 0.8026	0.2702
298.15 K, 101.33 kPa, x1 = 0.9035	0.2454
313.05 K, 101 kPa, x1 = 0.1048	0.3939
313.05 K, 101 kPa, x1 = 0.1992	0.3894
313.05 K, 101 kPa, x1 = 0.3044	0.3676
313.05 K, 101 kPa, x1 = 0.4015	0.3504
313.05 K, 101 kPa, x1 = 0.5066	0.3205
313.05 K, 101 kPa, x1 = 0.5998	0.2816

CCCCC + CCCCCCCCC
298.15 K, 101.33 kPa
Conditions	viscosity [mPa·s]
x1 = 0.0925	0.611
x1 = 0.1995	0.5548
x1 = 0.308	0.5016
x1 = 0.403	0.4556
x1 = 0.4861	0.4179
x1 = 0.6016	0.3691
x1 = 0.702	0.3268
x1 = 0.8033	0.2892
x1 = 0.904	0.2538

C1CCCCCCC1 + CCCCCCCCCC
viscosity [mPa·s], 101 kPa
Conditions	x1 = 0.0657	x1 = 0.1971	x1 = 0.282	x1 = 0.386	x1 = 0.508	x1 = 0.5849	x1 = 0.7031	x1 = 0.7984	x1 = 0.9053
308.15 K	0.7647	0.829	0.881	0.9331	1.026	1.093	1.213	1.345	1.55
313.15 K	0.7178	0.7776	0.819	0.8631	0.9523	1.006	1.12	1.24	1.406

CCCCC + CCCCCCCCCC
viscosity [mPa·s]
Conditions	x1 = 0.1031	x1 = 0.2082	x1 = 0.3062	x1 = 0.408	x1 = 0.5061	x1 = 0.6029	x1 = 0.7058	x1 = 0.804	x1 = 0.9008
297.95 K, 101 kPa	0.7711	0.6992	0.6136	0.5536	0.4708	0.4339	0.3667	0.32	0.2645
298.15 K, 101.33 kPa	0.7775	0.6969	0.6169	0.5449	0.4818	0.4285	0.3626	0.3143	0.2671
313.05 K, 101 kPa	0.6585	0.5949	0.5183	0.4627	0.4237	0.3644	0.3189	0.2801	0.2396
